One assay deals with T1, hGPR119 (Homo sapiens, UniProt Q8TDV5).
T1 construct: expressed in transfected cells
T1 sequence (Q8TDV5 2-335 limits assumed): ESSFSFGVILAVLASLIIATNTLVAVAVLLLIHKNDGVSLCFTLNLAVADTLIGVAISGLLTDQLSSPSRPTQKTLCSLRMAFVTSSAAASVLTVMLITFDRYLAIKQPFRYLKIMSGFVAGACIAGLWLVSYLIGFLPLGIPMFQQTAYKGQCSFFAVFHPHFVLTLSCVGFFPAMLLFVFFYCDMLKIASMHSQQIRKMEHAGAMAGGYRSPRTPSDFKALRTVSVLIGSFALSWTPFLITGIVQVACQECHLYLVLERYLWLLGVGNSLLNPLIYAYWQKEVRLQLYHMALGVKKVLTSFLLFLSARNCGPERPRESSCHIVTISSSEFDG
The assay can be described thus: HTRF cAMP assay in CHO-K1 cells stably expressing the GPR119 receptor. It counts as cell-based. The procedure:
GPR119 agonists were evaluated in an HTRF® cAMP detection assay according to the manufacturer's instructions (Cisbio, cAMP Dynamic 2 Assay Kit; #62AM4PEJ) using CHO-K1 cells stably expressing the GPR119 receptor. Briefly, CHO-K1 cells were transduced with a lentiviral vector encoding the nucleotide sequence of GPR119 (NCBI mRNA and protein reference sequences: NM_178471.2 & NP_848566, (GPR119 has also been referred to as Glucose-Dependent Insulinotropic Receptor (GDIR)). The N-terminus of the GPR119 nucleotide sequence was modified to replace the first, methionine-coding codon with a nucleotide sequence coding for a standard, nine amino acid, hemagglutinin tag. Following transduction, cells expressing the GPR119 receptor were isolated and a single clone was isolated following standard dilution-cloning procedures. On the day of the assay, cultured CHO-GPR119 cells were harvested, suspended in assay buffer and plated into 384-well assay plates (PerkinElmer Proxiplate #6008280) at a density of 2,000 cells per well. A cAMP standard curve was added to each plate. Test compounds were solubilized in DMSO, serially diluted in DMSO and then diluted in assay buffer before adding to the cells. Test compounds were evaluated in triplicate, using 10-point, 5-fold serial dilutions starting at 10 μM. The final DMSO concentration in the assay was 0.5%. Compounds and cells were incubated for 1 h at room temperature and then detection reagents were added to each well (cAMP-D2 in cell lysis buffer, followed by europium cryptate-labeled anti-cAMP antibody). Plates were then incubated at room temperature for 1 h prior to reading. Time-resolved fluorescence measurements were collected on PerkinElmer Envision™ or BMG Pherastar™ microplate readers. The compound N-(2-fluoro-4-(methylsulfonyl)phenyl)-6-(4-(3-isopropyl-1,2,4-oxadiazol-5-yl)piperidin-1-yl)-5-nitropyrimidin-4-amine was used as a positive control in each runset while assay buffer containing 0.5% DMSO was used as the negative control. The HTRF® assay was used to determine EC50 values for GPR119 agonists.
Background: TR-FRET usually uses a lanthanide donor and a delayed reading to cut background.

For assay [1], the system named is Male 129SVE mice. The assay can be described thus: Oral glucose tolerance test (oGTT) in male 129SVE mice. Format: in vivo. To be noted: for plasma glucose level, Mean: oGTT, in mg/dL (unit assumed). The procedure:
Male 129SVE mice (approximately 8-week old) were fasted for 18 h and randomly grouped (n=6) to receive a GPR119 agonist (Compound 8) at 3, or 30 mg/kg (mg/kg body weight). The compound was delivered orally via a gavage needle (p.o., volume at 4 mL/kg) 30 minutes prior to glucose bolus (3 g/kg) (time=−30 min in FIG. 1), with a separate group receiving vehicle (20% hydroxypropyl-beta-cyclodextrin) as control. At time 0 min the glucose bolus was administered. Levels of blood glucose were assessed using a glucometer (One-Touch Ultra™, LifeScan) at time −30 minute (prior to compound administration), at 0 min (at time when glucose bolus was given), and at 20, 40, 60, 120 minutes post glucose bolus. The plasma glucose level (Table 1) and glucose excursion curve (FIG. 1) are shown. Glucose excursion AUC (area under the curve) reduction in compound treated animals relative to vehicle control is given in FIG. 2.

Assay [2] deals with Male 129SVE mice. The assay can be described thus: In vivo incretin hormone GIP release (plasma total GIP, ELISA). To be noted: 3 or 30 mpk p.o., blood sample after 45 min. As for the experimental part: Male 129SVE mice (approximately 8-week old) were fasted for 18 h and randomly grouped (n=6) to receive a GPR119 agonist (Compound 8) at 3 or 30 mpk dose (mg/kg body weight). Compound 8 were delivered orally via a gavage needle (p.o., volume at 4 mL/kg), and after 45 min a blood sample was collected to determine plasma total GIP levels. A separate group received vehicle (PET: 80% PEG:10% Ethanol:10% Tween80™) as control. Plasma GIP levels were determined using a Total GIP ELISA kit from Millipore.

By EC50 is commonly meant the midpoint of the concentration-response curve. Low readings indicate higher potency in that assay, high ones lower potency in that assay. In turn, `CC(C)(C)OC(=O)N1CCC(CO[C@H]2CC[C@H](c3ccncc3F)CC2)CC1` [Compound 56, tert-Butyl 4-(((1r,4r)-4-(3-Fluoropyridin-4-yl)cyclohexyloxy)methyl)piperidine-1-carboxylate] returned a concentration for a half-maximal effect (EC50) on hGPR119 of 63 nM.
On the same count and under the same terms, the value for `CC(C)(F)c1noc(N2CCC(CO[C@H]3CC[C@H](c4ccc(S(C)(=O)=O)cc4F)CC3)CC2)n1` [Compound 16, 5-(4-(((1r,4r)-4-(2-Fluoro-4-(methylsulfonyl)phenyl)cyclohexyloxy)methyl)piperidin-1-yl)-3-(2-fluoropropan-2-yl)-1,2,4-oxadiazole] was 38 nM.
Still for that read-out and setting: the value for `CC(C)OC(=O)N1CCC(CO[C@H]2CC[C@H](c3ccc(S(C)(=O)=O)cc3F)CC2)CC1` [Compound 11, Isopropyl 4-(((1r,4r)-4-(2-Fluoro-4-(methylsulfonyl)phenyl)cyclohexyloxy)methyl)piperidine-1-carboxylate] was 21 nM; that for `CC(C)(C)OC(=O)N1CCC(CO[C@H]2CC[C@@H](c3cnc(S(C)(=O)=O)cn3)CC2)CC1` [Compound 12, tert-Butyl 4-((-4-(5-(Methylsulfonyl)pyrazin-2-yl)cyclohexyloxy)methyl)piperidine-1-carboxylate] was 707 nM; that for `CS(=O)(=O)c1ccc([C@H]2CC[C@H](OCC3CCN(c4ncc(C(F)(F)F)cn4)CC3)CC2)nc1` [Compound 18] was 134 nM.
On the same count and under the same terms, the value for `CC(C)(C)OC(=O)N1CCC(CO[C@H]2CC[C@H](c3ccncc3C#N)CC2)CC1` [Compound 49, tert-Butyl 4-(((1r,4r)-4-(3-Cyanopyridin-4-yl)cyclohexyloxy)methyl)piperidine-1-carboxylate] was 1030 nM.
Take `CS(=O)(=O)c1ccc([C@H]2CC[C@H](OCC3CCN(Cc4nc(C(F)(F)F)no4)CC3)CC2)c(F)c1` [Compound 60, 5-((4-(((1r,4r)-4-(2-Fluoro-4-(methylsulfonyl)phenyl)cyclohexyloxy)methyl)piperidin-1-yl)methyl)-3-(trifluoromethyl)-1,2,4-oxadiazole]: the midpoint of the response at hGPR119, the EC50, lay at 200 nM.
Regarding `CCc1cnc(N2CCC(CO[C@H]3CC[C@H](c4ccc(S(C)(=O)=O)cc4F)CC3)CC2)nc1` [Compound 8, 5-Ethyl-2-(4-(((1r,4r)-4-(2-fluoro-4-(methylsulfonyl)phenyl)cyclohexyloxy)methyl)piperidin-1-yl)pyrimidine], the “effect on blood glucose after glucose challenge” value in the assay with Male 129SVE mice [1] (129SVE mice, 3 or 30 mg/kg p.o., 30 min prior to glucose bolus (3 g/kg)) is on record as “lowered blood glucose”. For the same molecule, the “plasma glucose level, Mean” value in the assay with Male 129SVE mice [1] (3 mpk p.o., 20 min post glucose bolus) was 201.3; with Male 129SVE mice [1] (3 mpk p.o., 40 min post glucose bolus), 250.2; in the assay on Male 129SVE mice [1] (3 mpk p.o., 60 min post glucose bolus), 262.8; with Male 129SVE mice [1] (3 mpk p.o., 120 min post glucose bolus) it was 163.3; in the assay on Male 129SVE mice [1] (3 mpk p.o., time 0 min relative to glucose bolus) it was 112.5; in the assay with Male 129SVE mice [1] (3 mpk p.o., time −30 min relative to glucose bolus (prior to compound administration)), 88.7. For the same molecule, the “plasma glucose level, Mean” value in the assay with Male 129SVE mice [1] (30 mpk p.o., 20 min post glucose bolus) was 163.5; with Male 129SVE mice [1] (30 mpk p.o., 40 min post glucose bolus), 204.2; with Male 129SVE mice [1] (30 mpk p.o., 60 min post glucose bolus) it was 193.2; in the assay on Male 129SVE mice [1] (30 mpk p.o., 120 min post glucose bolus), 107.5; in the assay with Male 129SVE mice [1] (30 mpk p.o., time 0 min relative to glucose bolus), 96.0; with Male 129SVE mice [1] (30 mpk p.o., time −30 min relative to glucose bolus (prior to compound administration)) it was 72.2. Besides, the “effect on plasma total GIP release” value with Male 129SVE mice [2] is listed as “stimulates the release of GIP”.
In turn, `CC(C)(C)OC(=O)N1CCC(COC2CC=C(c3ccncc3C#N)CC2)CC1` (stereo not shown) [Compound 50, tert-Butyl 4-((4-(3-Cyanopyridin-4-yl)cyclohex-3-enyloxy)methyl)piperidine-1-carboxylate] returned an EC50 at hGPR119 of 38 nM.
The same measure, in the same setting: the value for `CSc1ccc([C@H]2CC[C@H](OCC3CCN(C(=O)OC(C)(C)C)CC3)CC2)cc1` [Compound 41, tert-Butyl 4-((4-(4-(Methylthio)phenyl)cyclohexyloxy)methyl)piperidine-1-carboxylate] was 505 nM; that for `CC(C)(C)OC(=O)N1CCC(CO[C@H]2CC[C@H](c3ccc(S(C)(=O)=O)cc3)CC2)CC1` [Compound 1, tert-Butyl 4-((4-(4-(Methylsulfonyl)phenyl)cyclohexyloxy)methyl)piperidine-1-carboxylate] was 16 nM; that for `CC(C)c1noc(N2CCC(COC3CC=C(c4ccc(S(C)(=O)=O)cc4)CC3)CC2)n1` (stereo not shown) [Compound 23, 3-Isopropyl-5-(4-((4-(4-(Methylsulfonyl)phenyl)cyclohex-3-enyloxy)methyl)piperidin-1-yl)-1,2,4-oxadiazole] was 15 nM.
On the same count and under the same terms, the value for `CC(C)(C)OC(=O)N1CCC(CO[C@H]2CC[C@H](c3ccc(S(C)(=O)=O)cc3F)CC2)CC1` [Compound 42, tert-Butyl 4-((4-(2-Fluoro-4-(methylsulfonyl)phenyl)cyclohexyloxy)methyl)piperidine-1-carboxylate] was 6.4 nM; that for `CC(C)OC(=O)N1CCC(CO[C@H]2CC[C@H](c3ccc(S(C)(=O)=O)cc3)CC2)CC1` [Compound 38, Isopropyl 4-((4-(4-(Methylsulfonyl)phenyl)cyclohexyloxy)methyl)piperidine-1-carboxylate] was 57 nM.
Still for that read-out and setting: the value for `Cc1nc(S(C)(=O)=O)ccc1[C@H]1CC[C@H](OCC2CCN(c3ncc(C(F)(F)F)cn3)CC2)CC1` [Compound 31, 2-(4-(((1r,4r)-4-(2-Methyl-6-(methylsulfonyl)pyridin-3-yl)cyclohexyloxy)methyl)piperidin-1-yl)-5-(trifluoromethyl)pyrimidine] was 42 nM.

Values taken from US20140018371A1, “Modulators Of The GPR119 Receptor And The Treatment Of Disorders Related Thereto” (ARENA PHARMACEUTICALS, INC., priority 2011, published 2014).
